{
  "source": "patent US11827543B2",
  "about": "“Method for continuous supply of superoxide-containing peracetate oxidant solution” (Clean Chemistry, Inc., priority 2014, dated 2023)",
  "assay": "ORP (oxidative-reductive potential) measurement of solutions and treated water",
  "format": "physicochemical",
  "settings": "for ORP (mV vs SHE): early flowback water, Example 19, 1.7 mmol/L oxidant; for ORP (mV vs SHE), maximum: produced water",
  "description": "Example 9: Hydrogen Peroxide Residual Concentration and interference. A sodium peracetate oxidant solution was produced according to the procedure in Example 4 and diluted to 2800 mg/L (28.5 mmol/L) with either distilled water, for clean water conditions, or tap water containing about 0.18 mg/L copper, which served as an activation catalyst. Some samples were spiked with 30 or 60 mg/L (0.88 or 1.76 mmol/L, respectively) hydrogen peroxide from a 1000 mg/L stock solution. […] The temperature of the samples was maintained at 25±2° C. with a heated water bath. The ORP response was monitored over time to observe the impact of adding low concentrations of hydrogen peroxide. The pH was measured using a high sodium electrode (Oakton model 35805-05) with three point calibration and automatic temperature correction. The ORP (oxidative-reductive potential) of solutions was measured using an Oakton model 35805-15 ORP probe calibrated to the standard hydrogen electrode (SHE) using Thermo/Orion ORP standard 967901.\nWater parameters were measured by a variety of methods. The pH was measured using a high sodium electrode (Oakton model 35805-05) with three point calibration and automatic temperature correction. The ORP (oxidative-reductive potential) of solutions was measured using an Oakton model 35805-15 ORP probe calibrated to the standard hydrogen electrode (SHE) using Thermo/Orion ORP standard 967901. Sodium ion concentration was measured using a Cole-Parmer ion selective electrode, EW-27504-30, with two point calibration of a sodium standard solution of NaCl. Chloride ion concentration was measured using a Cole-Parmer ion selective electrode, SC-27504-08, with two point calibration of a chloride standard solution of NaCl. All measurements using HACH methods were measured using a HACH DR900 colorimeter. Calcium, magnesium and total hardness concentrations were measured using HACH method 8030. Sulfate concentration was measured using HACH method 10248. Aluminum concentration was measured using HACH method 8012. Iron concentration was measured using HACH method 10249 modified with a longer reaction time to minimize interferences from organic impurities. Total suspended solids (TSS) concentration was measured using HACH method 8006 modified for smaller volumes. Turbidity was measured using HACH method 8237. ATP (adenosine triphosphate) concentration was measured using the LuminUltra 2nd Generation metabolic ATP measurement technology with the LuminUltra Quench Gone-Organic Modified sampling method, a PhotonMaster Luminometer and LumiCalc software. Acid producing bacteria (ABP) and sulfate reducing bacteria (SRB) cell culture concentrations were measured with standard 1 mL serial dilutions using Intertek APB and SRB culture media, 1% salinity.",
  "key": {"[1]": {"settings": "Piceance produced water, pH 7.00, 22 °C, 500 mg/L initial dose"}},
  "data": [
    {"smiles": "CC(=O)O[O-].[Na+]", "note": "[sodium peracetate oxidant, sodium peracetate]", "values": [
      {"measurement": "ORP, rapid initial increase", "setting": "Piceance produced water, pH 7.00, 22 °C, 100 mg/L initial dose", "value": "~800", "unit": "mV vs SHE"},
      {"measurement": "ORP after decline", "setting": "Piceance produced water, pH 7.00, 22 °C, 100 mg/L initial dose, after 120 minutes", "value": "about 470 mV"},
      {"measurement": "ORP, later level", "setting": "[1]", "value": "about 1040 mV vs SHE"},
      {"measurement": "ORP, rapid initial increase", "setting": "[1]", "value": "about 890 mV vs SHE"},
      {"measurement": "ORP", "setting": "Piceance produced water, first 26 mg/L dose of sequential dosing", "value": "more than 800 mV vs SHE"},
      {"measurement": "ORP maximum", "setting": "Piceance produced water, single dose 78 mg/L (60 mg/L as PAA)", "value": 870, "unit": "mV vs SHE"},
      {"measurement": "ORP", "setting": "Piceance produced water, single dose 78 mg/L, in less than 60 minutes", "value": "below 600 mV vs SHE"},
      {"measurement": "ORP (mV vs SHE)", "setting": "contact time 3 minutes", "value": 701, "unit": "mV vs SHE"},
      {"measurement": "ORP (mV vs SHE)", "setting": "contact time 13 minutes", "value": 581, "unit": "mV vs SHE"},
      {"measurement": "ORP (mV vs SHE)", "setting": "contact time 35 minutes", "value": 446, "unit": "mV vs SHE"},
      {"measurement": "ORP (mV vs SHE)", "setting": "contact time 90 minutes", "value": 420, "unit": "mV vs SHE"},
      {"measurement": "ORP of water drawn from the frac tanks", "setting": "frac on the fly make-up water, about 15 minute contact time", "value": "less than 500 mV"},
      {"measurement": "ORP (mV vs SHE), maximum", "setting": "Example 17, 29 mg/L", "value": "over 700 mV vs SHE"},
      {"measurement": "ORP (mV vs SHE), maximum", "setting": "Example 17, 29 mg/L plus 5 mg/L floc aid", "value": "over 700 mV vs SHE"},
      {"measurement": "ORP (mV vs SHE), maximum", "setting": "Example 17, 29 mg/L plus 5 mg/L floc aid, listed as Sodium Peracetate Oxidant", "value": 770, "unit": "mV vs SHE"},
      {"measurement": "ORP (mV vs SHE), maximum", "setting": "Example 17, 29 mg/L, listed as Sodium Peracetate Oxidant", "value": 766, "unit": "mV vs SHE"},
      {"measurement": "ORP (mV vs SHE), maximum", "setting": "Example 17, 52 mg/L", "value": "over 800 mV vs SHE"},
      {"measurement": "ORP (mV vs SHE), maximum", "setting": "Example 17, 52 mg/L, listed as Sodium Peracetate Oxidant", "value": 809, "unit": "mV vs SHE"},
      {"measurement": "ORP (mV vs SHE), maximum", "setting": "Example 18, 0.30 mmol/L oxidant", "value": 766, "unit": "mV vs SHE"}
    ]}
  ]
}
